Experimental data published in patent US12600714B2, “Substituted pyrazinecarboxamide compounds for treating diseases related to EGFR mutation” (WIGEN BIOMEDICINE TECHNOLOGY (SHANGHAI) CO., LTD., priority 2020, dated 2026).

Key:
[1] = molecular target: Ba/F3 (EGFR^del19/T790M/C797S) triple-mutant cells (Homo sapiens, UniProt P00533, T790M/C797S, cells depend on it, form not given); test: Antiproliferative activity against Ba/F3 (EGFR del19/T790M/C797S) triple-mutant cells, Cell Titer Glow; format: cell-based; conditions: three days after addition of compounds; read-out: Antiproliferative activity BaF3(EGFR^del19/T790M/C797S) IC50
Method: (§1) Antiproliferative Activity of the Compounds Disclosed Herein Against Ba/F3 (EGFR^del19/T790M/C797S) Triple-Mutant Cells and A431 (EGFR WT) Cells
(§2) • 3000 Ba/F3 cells carrying EGFR (del19/T790M/C797S) or 2000 A431 cells were seeded in a 384-well plate. After one day, serially diluted compounds were added (up to 500 nM for Ba/F3 cells and up to 10 μM for A431 cells). Three days after the addition of the compounds, Cell Titer Glow was added to evaluate cell growth and the percentage cell growth inhibition by the compounds and the IC50 values were calculated.

A431 (EGFR WT) cells = test: Antiproliferative activity against A431 (EGFR WT) cells, Cell Titer Glow; format: cell-based; conditions: Homo sapiens, A-431, 72 h; three days after addition of compounds; read-out: Antiproliferative activity A431 wild-type (WT) IC50
Method: as §1, §2

EGFR (del19/T790M/C797S) = test: HTRF inhibitory activity assay against EGFR (del19/T790M/C797S) enzyme; format: biochemical
Summary of the method: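 Wild-type or mutant EGFR preincubated with serially diluted compound 10 min at 28 °C, then reacted 40 min at room temperature with biotinylated TK substrate and ATP. Phosphorylation detected by HTRF (Eu-cryptate anti-TK antibody, streptavidin-XL665, 60 min), 665/615 nm ratio; % inhibition and IC50 vs control.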

Ba/F3 (EGFR^del19/T790M/C797S) triple-mutant cells, sequence (P00533 with tags, fused parts or gaps DEL746-750/T790M/C797S, form open): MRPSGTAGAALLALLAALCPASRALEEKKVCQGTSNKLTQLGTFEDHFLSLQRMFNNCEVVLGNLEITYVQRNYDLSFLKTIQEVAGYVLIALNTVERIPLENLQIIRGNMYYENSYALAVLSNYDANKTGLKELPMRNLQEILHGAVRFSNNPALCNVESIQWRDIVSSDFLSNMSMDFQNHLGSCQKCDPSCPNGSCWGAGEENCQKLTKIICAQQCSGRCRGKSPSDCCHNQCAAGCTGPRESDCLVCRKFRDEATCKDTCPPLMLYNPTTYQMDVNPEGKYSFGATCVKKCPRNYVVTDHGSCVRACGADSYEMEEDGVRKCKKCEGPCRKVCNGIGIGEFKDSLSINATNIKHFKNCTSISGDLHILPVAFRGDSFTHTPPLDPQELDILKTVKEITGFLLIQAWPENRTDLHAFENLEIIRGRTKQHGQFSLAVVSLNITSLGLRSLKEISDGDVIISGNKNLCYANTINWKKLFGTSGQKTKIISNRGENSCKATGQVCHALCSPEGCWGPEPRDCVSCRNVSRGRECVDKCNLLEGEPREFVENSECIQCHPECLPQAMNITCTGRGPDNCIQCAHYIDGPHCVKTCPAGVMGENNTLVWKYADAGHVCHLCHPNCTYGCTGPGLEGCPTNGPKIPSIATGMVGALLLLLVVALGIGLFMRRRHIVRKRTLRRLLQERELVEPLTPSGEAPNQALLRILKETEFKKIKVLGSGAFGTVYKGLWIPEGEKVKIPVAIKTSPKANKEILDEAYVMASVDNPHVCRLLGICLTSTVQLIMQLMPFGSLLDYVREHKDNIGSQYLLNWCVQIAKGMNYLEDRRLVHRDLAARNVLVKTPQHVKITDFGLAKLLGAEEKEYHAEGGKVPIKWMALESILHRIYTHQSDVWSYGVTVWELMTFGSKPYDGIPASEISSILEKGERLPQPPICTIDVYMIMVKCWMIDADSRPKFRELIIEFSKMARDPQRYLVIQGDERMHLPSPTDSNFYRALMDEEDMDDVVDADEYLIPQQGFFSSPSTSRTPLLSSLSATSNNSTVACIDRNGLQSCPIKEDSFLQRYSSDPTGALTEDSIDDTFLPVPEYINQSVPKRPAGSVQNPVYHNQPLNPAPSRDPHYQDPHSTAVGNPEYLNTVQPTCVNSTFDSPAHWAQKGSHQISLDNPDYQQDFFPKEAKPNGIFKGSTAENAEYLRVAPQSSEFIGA

SMILES | GI50 [1] [nM] | IC50 (A431 (EGFR WT) cells) [nM] | EGFR (del19/T790M/C797S) inhibition (%) (0.3 nM compound) (EGFR (del19/T790M/C797S))
Cc1cnccc1-c1nc(C(N)=O)c(Nc2ccc(N3CCC(N4CCN(C)CC4)CC3)cc2)nc1NC1CCOCC1 [compound 74] | > 100 | 2100 | 
CN1CCN(C2CCN(c3ccc(Nc4nc(NC5CCOCC5)c(-c5ccccc5N(C)C)nc4C(N)=O)cc3)CC2)CC1 [compound 85] | 357 | 1500 | 
CN1CCN(C2CCN(c3ccc(Nc4nc(NC5CCOCC5)c(-c5cccc(N(C)C)c5)nc4C(N)=O)cc3)CC2)CC1 [compound 86] | 21 | 1700 | 
CN1CCN(C2CCN(c3ccc(Nc4nc(NC5CCOCC5)c(-c5cncs5)nc4C(N)=O)cc3)CC2)CC1 [compound 88] | 52 | 280 | 
CO[C@H]1CC[C@H](Nc2nc(Nc3ccc(N4CCC(N5CCN(C)CC5)CC4)cc3)c(C(N)=O)nc2-c2ccccc2)CC1 [compound 115] | 214 | 2000 | 
CN1CCN(C2CCN(c3ccc(Nc4nc(O[C@@H]5CCN(CCO)C5)c(-c5ccccc5)nc4C(N)=O)cc3)CC2)CC1 [compound 131] | > 100 | > 10000 | 
CN1CCN(C2CCN(c3ccc(Nc4nc(NC5CCC(O)C5)c(-c5ccccc5)nc4C(N)=O)cc3)CC2)CC1 (stereo not shown) [compound 135, 5-((3-hydroxycyclopentyl)amino)-3-((4-(4-(4-methylpiperazin-1-yl)piperidin-1-yl)phenyl)amino)-6-phenylpyrazine-2-carboxamide] | 40 | 340 | 
CN1CCN(C2CCN(c3ccc(Nc4nc(N[C@@H]5CCC[C@H](O)C5)c(-c5ccccc5)nc4C(N)=O)cc3)CC2)CC1 [compound 141] | 27 | 230 | 
Cc1cc(Nc2nc(NC3CCOCC3)c(-c3ccncc3)nc2C(N)=O)ccc1N1CCN(C)CC1 [compound 148] | 68 | 1700 | 
CCc1cc(Nc2nc(NC3CCOCC3)c(-c3ccncc3)nc2C(N)=O)ccc1N1CCC(N2CCN(C)CC2)CC1 [compound 161] | 54 | 1200 | 
CN1CCN(c2ccc(Nc3nc(NC4CCOCC4)c(-c4cc[nH]n4)nc3C(N)=O)cc2)CC1 [compound 174] | 51 | 1000 | 
CCc1cc(Nc2nc(NC3CCOCC3)c(-c3cc[nH]n3)nc2C(N)=O)ccc1N1CCC(N2CCN(C)CC2)CC1 [compound 184] | 18 | 980 | 
Cc1cc(Nc2nc(NC3CCOCC3)c(-c3ccccn3)nc2C(N)=O)ccc1N1CCC(N2CCN(C)CC2)CC1 [compound 213] | 226 | > 10000 | 
COc1cc(Nc2nc(NC3CCOCC3)c(-c3cc[nH]n3)nc2C(N)=O)ccc1N1CCC(N2CCN(C)CC2)CC1 [compound 417] | 57 | 190 | 
CC(C)c1cc(Nc2nc(NC3CCOCC3)c(-c3cc[nH]n3)nc2C(N)=O)ccc1N1CCC(N2CCN(C)CC2)CC1 [compound 420] | 32 | 3700 | 
CN1CCN(C2CCN(c3ccc(Nc4nc(NC5CCOCC5)c(-c5cc[nH]n5)nc4C(N)=O)cc3C3CC3)CC2)CC1 [compound 421] | 36 | 530 | 
COc1cc(Nc2nc(NC3CC4(COC4)C3)c(-c3cc[nH]n3)nc2C(N)=O)ccc1N1CCC(N2CCN(C)CC2)CC1 [compound 504] | 98 | 330 | 
Cc1cc(Nc2nc(NC3CCOCC3)c(-c3cccc4[nH]ccc34)nc2C(N)=O)ccc1N1CCC(N2CCN(C)CC2)CC1 [compound 513] | 57 | 560 | 
Cc1cc(Nc2nc(NC3CCOCC3)c(-c3ccnc4[nH]ccc34)nc2C(N)=O)ccc1N1CCC(N2CCN(C)CC2)CC1 [compound 514] | 48 | 250 | 
CCc1cc(Nc2nc(NC3CCOCC3)c(-c3cccc4[nH]ccc34)nc2C(N)=O)ccc1N1CCC(N2CCN(C)CC2)CC1 [compound 515] | 42 | 520 | 
CCc1cc(Nc2nc(NC3CCOCC3)c(-c3ccnc4[nH]ccc34)nc2C(N)=O)ccc1N1CCC(N2CCN(C)CC2)CC1 [compound 516] | 42 | 350 | 
CN1CCN(C2CCN(c3ccc(Nc4nc(NC5CCOCC5)c(-c5cncc6[nH]ccc56)nc4C(N)=O)cc3)CC2)CC1 [compound 538] | 35 | 290 | 
CN1CCN(C2CCN(c3ccc(Nc4nc(N[C@H]5C[C@H](O)C5)c(-c5cc[nH]n5)nc4C(N)=O)cc3F)CC2)CC1 [compound 621] |  |  | +++ (+++ indicates an inhibition greater than 50%.)

SMILES | GI50 [1] [nM] | IC50 (A431 (EGFR WT) cells) [nM] | EGFR (del19/T790M/C797S) inhibition (%) (0.3 nM compound) (EGFR (del19/T790M/C797S))
CC(C)Nc1nc(Nc2ccc(N3CCC(N4CCN(C)CC4)CC3)c(F)c2)c(C(N)=O)nc1-c1cc[nH]n1 [compound 622] |  |  | +++ (+++ indicates an inhibition greater than 50%.)
CN1CCN(C2CCN(c3ccc(Nc4nc(NC5CCC(O)C5)c(-c5cc[nH]n5)nc4C(N)=O)cc3F)CC2)CC1 (stereo not shown) [compound 623] |  |  | +++ (+++ indicates an inhibition greater than 50%.)
CN1CCN(C2CCN(c3ccc(Nc4nc(NC5CCCC5O)c(-c5cc[nH]n5)nc4C(N)=O)cc3F)CC2)CC1 (stereo not shown) [compound 624] |  |  | ++ (++ indicates an inhibition from 20% to 50%)
CN1CCN(C2CCN(c3ccc(Nc4nc(NC5CC5)c(-c5cc[nH]n5)nc4C(N)=O)cc3)CC2)CC1 [compound 625] |  |  | +++ (+++ indicates an inhibition greater than 50%.)
CN1CCN(C2CCN(c3ccc(Nc4nc(NC5CC5)c(-c5cc[nH]n5)nc4C(N)=O)cc3F)CC2)CC1 [compound 626] |  |  | +++ (+++ indicates an inhibition greater than 50%.)
CN1CCN(C2CCN(c3ccc(Nc4nc(NC5CC6(COC6)C5)c(-c5cc[nH]n5)nc4C(N)=O)cc3)CC2)CC1 [compound 627] |  |  | ++ (++ indicates an inhibition from 20% to 50%)
CN1CCN(C2CCN(c3ccc(Nc4nc(NC5CC6(COC6)C5)c(-c5cc[nH]n5)nc4C(N)=O)cc3F)CC2)CC1 [compound 628] |  |  | ++ (++ indicates an inhibition from 20% to 50%)
CN1CCN(C2CCN(c3ccc(Nc4nc(NC5CC6(COC6)C5)c(-c5ccnc6[nH]ccc56)nc4C(N)=O)cc3)CC2)CC1 [compound 629] |  |  | +++ (+++ indicates an inhibition greater than 50%.)
CN1CCN(C2CCN(c3ccc(Nc4nc(NC5CC6(COC6)C5)c(-c5ccnc6[nH]ccc56)nc4C(N)=O)cc3F)CC2)CC1 [compound 630] |  |  | +++ (+++ indicates an inhibition greater than 50%.)
CN1CCN(C2CCN(c3ccc(Nc4nc(NC5CC5)c(-c5ccncc5)nc4C(N)=O)cc3)CC2)CC1 [compound 631] |  |  | +++ (+++ indicates an inhibition greater than 50%.)
CN1CCN(C2CCN(c3ccc(Nc4nc(NC5CC5)c(-c5ccncc5)nc4C(N)=O)cc3F)CC2)CC1 [compound 632] |  |  | +++ (+++ indicates an inhibition greater than 50%.)
CN1CCN(C2CCN(c3ccc(Nc4nc(NC5CC6(COC6)C5)c(-c5ccncc5)nc4C(N)=O)cc3)CC2)CC1 [compound 633] |  |  | +++ (+++ indicates an inhibition greater than 50%.)
CN1CCN(C2CCN(c3ccc(Nc4nc(NC5CC6(COC6)C5)c(-c5ccncc5)nc4C(N)=O)cc3F)CC2)CC1 [compound 634] |  |  | +++ (+++ indicates an inhibition greater than 50%.)
CC(C)Nc1nc(Nc2ccc(N3CCC(N4CCN(C)CC4)CC3)c(F)c2)c(C(N)=O)nc1-c1ccncc1 [compound 635] |  |  | +++ (+++ indicates an inhibition greater than 50%.)
CN1CCN(C2CCN(c3ccc(Nc4nc(NC5CCC5)c(-c5ccncc5)nc4C(N)=O)cc3)CC2)CC1 [compound 638] |  |  | +++ (+++ indicates an inhibition greater than 50%.)
CN1CCN(C2CCN(c3ccc(Nc4nc(NC5CCC5)c(-c5ccncc5)nc4C(N)=O)cc3F)CC2)CC1 [compound 639] |  |  | +++ (+++ indicates an inhibition greater than 50%.)
CN1CCN(C2CCN(c3ccc(Nc4nc(NC5CCCC5)c(-c5ccncc5)nc4C(N)=O)cc3)CC2)CC1 [compound 640] |  |  | +++ (+++ indicates an inhibition greater than 50%.)
CN1CCN(C2CCN(c3ccc(Nc4nc(NC5CCCC5)c(-c5ccncc5)nc4C(N)=O)cc3F)CC2)CC1 [compound 641] |  |  | +++ (+++ indicates an inhibition greater than 50%.)
CN1CCN(C2CCN(c3ccc(Nc4nc(N[C@@H]5CCOC5)c(-c5ccncc5)nc4C(N)=O)cc3)CC2)CC1 [compound 642] |  |  | +++ (+++ indicates an inhibition greater than 50%.)
CN1CCN(C2CCN(c3ccc(Nc4nc(N[C@@H]5CCOC5)c(-c5ccncc5)nc4C(N)=O)cc3F)CC2)CC1 [compound 643] |  |  | +++ (+++ indicates an inhibition greater than 50%.)
CN1CCN(C2CCN(c3ccc(Nc4nc(N[C@H]5CCOC5)c(-c5ccncc5)nc4C(N)=O)cc3)CC2)CC1 [compound 644] |  |  | +++ (+++ indicates an inhibition greater than 50%.)
CN1CCN(C2CCN(c3ccc(Nc4nc(N[C@H]5CCOC5)c(-c5ccncc5)nc4C(N)=O)cc3F)CC2)CC1 [compound 645] |  |  | +++ (+++ indicates an inhibition greater than 50%.)
